The values that follow are results of earlier work, collected in US10245278B2 (priority 2013, dated 2019).

For series [1] the following is noted: angina pectoris or congestive heart failure; oral, at least 6 grams per day for 6 weeks.
For series [2] the following is noted: intermittent claudication; oral 8 grams twice per day for 3 weeks.
For series [3] the following is noted: slightly hypertensive persons; oral 12 grams per day in three administrations for 4 weeks.
For series [4] the following is noted: menopausal women; oral 14 grams per day for 6 months.
For series [5] the following is noted: even at doses of 9 or 10 grams twice per day.
The conditions of series [6]: heart transplant patients; 6 grams per day for several weeks.
For series [7] the following is noted: male subjects; 8 grams in a single administration one or two hours before relations.

Like-named read-outs stand apart in the source and are kept apart here.

`N=C(N)NCCC[C@H](N)C(=O)O` [arginine, L-arginine]: in series [1], the “ability to withstand physical effort” value is “improves the ability to withstand physical effort”. For the same compound, the walking range entry in series [2] is “enabled their walking range to be increased”. Besides, the arterial pressure result in series [3] was “reduced the arterial pressure significantly”. Also, the muscular force result in series [4] is listed as “resulted in increasing muscular force”. Further, in series [5], the side effects entry was “very few side effects”.

Take L-arginine aspartate: the “ability to withstand physical effort” value in series [6] is “same result”. The moderate sexual dysfunction entry in series [7] is listed as “significantly improved their disorder”.
